Laboratory results: patent publication US11181533B2, “Diagnosing and treating Alzheimer's disease” (DIGNITY HEALTH, priority 2013, dated 2021)
Where two headings read alike, the source gives them in different places. No end group written: not given here.

Columns and labels:
[1] = tested on: SAMP8 mice and APP transgenic mice; conditions: intranasal administration, cited from earlier work
Aβ induced cell death = experiment: Protection against Aβ induced cell death; type: cell-based; conditions: by enhancing mitochondrial function

Substance: Pituitary Adenylate Cyclase Activating Polypeptide (HSDGIFTDSYSRYRKQMAVKKYLAAVLGKRYKQRVKNK; ends and bridges not checked; UniProt P18509 132-169, looked up) [PACAP, small peptide with either 38 amino acids in full length form (PACAP-38), or 27 amino acids in short form (PACAP-27); neurotrophin]
- Novel object recognition ([1]; APP transgenic mice): enhances Novel object recognition
- Novel object recognition ([1]; SAMP8 mice): enhances Novel object recognition
- protection against Aβ induced cell death (Aβ induced cell death): protects against Aβ induced cell death
